Experimental data from the METLIN SMRT retention time set (Domingo-Almenara et al. 2019).

Assay: gradient 5% acetonitrile 3 min, to 50% in 2 min, to 85% in 15 min, held 3 min, 100 µL/min
Conditions: column: Zorbax Extend-C18 2.1 x 50 mm; eluents: water / acetonitrile, 0.1% formic acid
Outline: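 Retention times come from adduct peaks that were picked computationally and then checked by hand. The standards, pure and pooled in mixtures of ~100 molecules, were run on a Zorbax Extend-C18 column (2.1 × 50 mm, 1.8 μm) at 100 μL/min with water and acetonitrile, each with 0.1% formic acid. Detection was by quadrupole time-of-flight mass spectrometry in positive and negative ionization mode, with a dead volume of 40 μL and a dwell volume of 900 μL.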

Compound	RP-LC retention time
Cc1ccc(F)cc1S(=O)(=O)N1CCn2c(nnc2C2CCN(C(C)C)C2)C1 (stereo not given)	608 s
O=C(CCC1CCCN(S(=O)(=O)c2ccccc2F)C1)NCc1cc(F)ccc1F (stereo not given)	966 s
COCCNC(=O)c1ccc2c(c1)CCCN2S(C)(=O)=O	649 s
O=C(NCC(O)c1cccc2ccccc12)NC1CCCCC1 (stereo not given)	781 s
CN(CC1CCOCC1)C(=O)NCc1cccc(F)c1	684 s
CC(C)N1CCn2cc(S(=O)(=O)Nc3ccccc3F)cc2C1=O	730 s
Cn1c(C2CCN(C(=O)Nc3ccc(Cl)cc3)CC2)cc(=O)n2nccc12	676 s
CN1C(=O)c2cccn2CC1C(=O)NC1CCCC1 (stereo not given)	634 s
COc1cccc(C(O)CN2CCN(c3ccccc3)CC2)c1 (stereo not given)	634 s
O=C(NCc1ccc2c(c1)OCO2)C1COC2(CCN(C(=O)C3CC3)CC2)N1C(=O)c1ccccc1 (stereo not given)	692 s
Cc1nc(Cn2cccc2C(=O)NC2CCCCCCC2)no1	954 s
CC1Oc2ccc(-c3csc(NC(=O)C4CCCCC4)n3)cc2NC1=O (stereo not given)	922 s
CSc1cccc(NC(=O)c2[nH]c3cc(C)sc3c2CN2CCOCC2)c1	733 s
Cc1ccc(C)c(N2CCN(Cc3nc(-c4ccc(N5CCOCC5)nc4)no3)CC2)c1	949 s
COc1ccc(C(=O)N2C[C@@H]3C[C@H]2C[C@@H]3NC(=O)c2cccs2)cc1F	712 s
COc1cccc(OC)c1C(=O)Nc1nnc(SCc2nnc(-c3ccccc3)o2)s1	832 s
Cc1ccc(NC(=O)Cn2ccc3sccc3c2=O)c(C)c1	766 s
O=C(C1CCN(S(=O)(=O)Cc2ccc(F)cc2)CC1)N1CCCC1	735 s
CC(C(=O)NCCN1CCCCC1)n1c2ccccc2c2cnn(C)c(=O)c21 (stereo not given)	628 s
Cc1ccc(S(=O)(=O)N2CCC(N3CCN(Cc4ccccc4)C(=O)C3=O)CC2)cc1Cl	799 s
O=C(NCc1cc(F)cc(F)c1)c1cn(-c2ccc(NC(=O)C3CC3)cn2)cn1	763 s
COc1ccccc1OCc1nc(-c2ccc3ncn(C)c3c2)no1	693 s
Cc1ccc2ncn(C3CCN(S(=O)(=O)c4ccc(Cl)cc4)CC3)c(=O)c2c1	970 s

Compound	RP-LC retention time
COC(=O)Cn1c(C2CC(=O)N(c3cc(Cl)ccc3OC)C2)nc2ccccc21 (stereo not given)	758 s
CCOC(=O)c1ccc(N2C=C(C(=O)N3CCCC3)S(=O)(=O)c3ccccc32)cc1	813 s
O=C(NCC(O)(c1ccccc1)C(F)(F)F)C(=O)Nc1ccon1 (stereo not given)	738 s
CCn1ccc2c(cc(C(=O)Nc3cccc(OC)c3)n2C)c1=O	748 s
CC(C)n1cnc2cc(CNC(=O)Cc3ccc(F)cc3)ccc21	623 s
Cc1cccc(CNC(=O)C2CCN(CCc3cn(C)c4ncccc34)CC2)c1	626 s
CCOC(=O)C1CCN(S(=O)(=O)c2cc3n(c2)CCCNC3=O)CC1	652 s
COc1ccc(NC(=O)Cn2cnc3c(sc4nc(-c5ccccc5)ccc43)c2=O)cc1	967 s
CCCC(=O)N1CCC2(CC1)NC(=O)c1ccccc1O2	688 s
C=CCSc1nnc(Cc2cc(=O)[nH]c(=O)[nH]2)n1-c1ccc(Cl)cc1	624 s
CC(Cc1ccco1)NC(=O)Cn1c(=O)c(=O)n(C)c2ncccc21 (stereo not given)	688 s
Cc1c(C(=O)NCCCN2CCOCC2)oc2ccc3c(c12)C(O)CC(C)(C)O3 (stereo not given)	612 s
Cc1ccc(NC(=O)N2CCC3(C2)c2nc[nH]c2CCN3C)cc1 (stereo not given)	554 s
Cc1ccc(NC(=O)N2CCC(C(C)C(=O)Nc3ccc(C)c(C)c3)CC2)cc1 (stereo not given)	932 s
CN1C(=O)NC(c2ccccc2C(F)(F)F)C2=C1CN(CCC(=O)N1CCCC1)C2=O (stereo not given)	598 s
CCN1c2ccc(F)cc2C(=O)NC12CCN(C(=O)c1ccccc1)CC2	763 s
COc1ccc(-c2cnn3c(C)cc(C)nc23)cc1S(=O)(=O)NC(C)c1ccccc1 (stereo not given)	1010 s
CC(=O)N[C@@H]1CN(C(=O)Cc2ccccc2Br)C[C@H]1CO	610 s
O=C(c1ccc2ccnc(N3CCN(c4ccc(Cl)cc4)CC3)c2c1)N1CCCCCC1	986 s
COC(=O)c1ccc(C(=O)Nc2ccc(CC(=O)NC3CC3)cc2)cc1	657 s
CCc1csc(-c2ccc(S(=O)(=O)NC(CC)c3cccs3)s2)n1 (stereo not given)	1150 s
COc1ccc(-c2nc(NCCN(C)C3CCCCC3)c3ccccc3n2)cc1	592 s
